We go through one molecule from PMC9810691, “Structure-guided peptide engineering of a positive allosteric modulator targeting the outer pore of TRPV1 for long-lasting analgesia” (Nature Communications, 2023).

Values joined by “and” are separate entries in the source; they are usually repeats but may differ in a detail not shown here. Equal entries are not always repeated.

The target of assay [1] is T1, TRPV1 (Mus musculus, UniProt Q704Y3). Kind of assay: Calcium imaging, HEK293T cells expressing TRPV1. Format: cell-based, murine. The protocol: (§1) HEK293T cells are cultured using DMEM medium contained 10% FBS in a cell incubator with 5% CO2 at 37 °C. Plasmids of murine TRPV1, TRPV2, TRPV3 and human TRPA1 are labeled with YFP or GFP as indicators for subsequent electrophysiological recordings. cDNA constructs of ion channels were transiently transfected with Lipofectamine 2000 (Invitrogen, Carlsbad, CA). And one or 2 days after transient transfection, electrophysiological recordings were performed.
Calcium imaging assay was performed as previously described[12],[20]. In brief, HEK293T cells expressing TRPV1 were incubated with 2 μM Fluo-4 AM (Thermo Fisher) in 2 mM calcium Ringer’s solution (140 mM NaCl, 5 mM KCl, 2 mM MgCl2, 2 mM CaCl2, 10 mM glucose, and 10 mM HEPES, pH 7.4). Fluorescence images of HEK293T cells were acquired with Nikon Eclipse Ti2 microscope with optiMOS charge-coupled device camera controlled by the Ocular Software (Molecular Devices). Fluo-4 AM was excited at 500/20-nm excitation, and fluorescence emission was detected at 535/30-nm. Fluorescence images were analyzed with Fiji software and Office Excel.

The subject of assay [2] is Trpv1+ nerve fibers, Trpv1-Ai32 / Trpv1-Ai14 mice. Kind of assay: Trpv1+ intra-epidermal nerve fiber (IENF) quantification. Format: in vivo. Conditions: capsaicin 200 ng alone or with 2 μg peptide. The protocol:
(§2) Adult C57 BL/6 mice (male, 8–10 weeks) and Trpv1^-/- mice (Jax Strain #:003770) were used for behavioral studies. To specifically label Trpv1-positive nerve fibers in skin tissues, Trpv1-Cre mice[36] (Jax Strain #:017769) were crossed with floxed reporter lines (Ai32, Jax Strain #:012569 or Ai14, Jax Strain #:007914) to get the transgenic reporter (Trpv1-Ai32 or Trpv1-Ai14) mice. Mice were group-housed at 22–24 °C and relative humidity of 30–70% under the 12 h light-dark cycle with access to standard food and water ad libitum. All the animal procedures were approved by the Institutional Animal Care & Use Committee (IACUC) of Zhejiang University.
After appropriate survival times, the mice were deeply anesthetized with isoflurane and perfused through the ascending aorta with PBS, followed by 4% PFA. After the perfusion, the hind paw glabrous skins and L4-L6 DRGs were removed and postfixed in the same fixative overnight. Skin sections (30 μm) and DRG sections (10 μm) were cut in a cryostat. Sections were blocked with 2% BSA for 2 h at room temperature and then incubated with Deep-red 640/660-conjugated Nissl (1:1000) at room temperature for 2 h. Sections were then incubated with DAPI (1:10,000, Vector Laboratories, catalog H-1200) for 5 min, followed by three times washing with PBS for 5 min each. The stained and mounted sections were examined with a Nikon fluorescence microscope, and images were captured with a charge-coupled device Spot camera. For quantification analysis, at least three sections from each mouse were selected, and at least three mice were analyzed in each group. To evaluate Trpv1-positive nerve fiber degeneration, transgenic reporter (Trpv1-Ai32 or Trpv1-Ai14) mice were used for the quantification of intra-epidermal nerve fiber (IENF) density. IENF density was calculated by counting the number of IENF crossing the epidermis-dermis boundary within unit length.

Assay [3] has as its system CFA-induced chronic inflammatory pain model mice. Format: in vivo. The note with it: capsaicin alone (with saline) or with linear or folded s-RhTx; words. The protocol: Mechanical allodynia was assessed via von Frey test as previously reported. Mice were placed in a plexiglass chamber upon the elevated metal mesh with 1 cm openings and allowed to acclimatize for 1 h. To determine mechanical thresholds of paw withdrawal, a series of von Frey filaments (0.02–2.56 g, Stoelting Co.) with increasing stiffness were used according to Dixon’s up-down method.

Assay [4] addresses T1, TRPV1. In words: Capsaicin-induced desensitization of TRPV1 (WT) in calcium. Format: cell-based, murine. The protocol: as §1
(§3) Patch-clamp recordings were carried out with a HEKA EPC10 amplifier controlled by PatchMaster software (HEKA). Patch pipettes were prepared from borosilicate glass and fire-polished to resistance of 3–8 MΩ by P-97 puller. Both bath solution and pipette solution contained 130 mM NaCl, 10 mM glucose, 0.2 mM EDTA, and 3 mM HEPES and were adjusted to pH 7.2–7.4 with NaOH for whole-cell recordings. For solution with pH lower than 6.5, HEPES was replaced by MES. Whole-cell recordings were performed at ±80 mV. Current was sampled at 10 kHz and filtered at 2.9 kHz. All recordings were performed at room temperature (25 °C). A gravity-driven system (RSC-200, Bio-Logic) with freely rotated perfusion tubes was used for the perfusion of peptide or ligands. Bath and ligand solution were delivered through separate tubes to minimize the mixing of solutions. […]
(§4) Data from whole-cell recordings were analyzed in Igor Pro version 5.05 (WaveMatrix). […]

The test system of another assay is TRPV1 K604E. Kind of assay: Desensitization, TRPV1 mutant K604E. Format: cell-based, murine. Conditions: 10 μM cap alone or + 30 μM s-RhTx; single cells; listed as cap. On the procedure: Site mutations of mTRPV1 were generated by Fast Mutagenesis Kit (Takara Bio). Primers used to generate point mutations are summarized in Supplementary Table 1. All mutations were confirmed by sequencing.
as §3, with “solutions. Patch pipette holding cells was placed in front of the perfusion tube outlet for perfusion.” for “solutions.”
as §4

The subject of assay [5] is CFA-induced chronic inflammatory pain model mice. In words: CFA-induced heat hyperalgesia (Hargreaves test). Format: in vivo. Conditions: capsaicin alone (with saline) or with linear or folded s-RhTx; words. On the procedure: Thermal sensitivity was tested using a Hargreaves radiant heat apparatus (IITC Life Science) as previously reported[40],[41]. For heat hyperalgesia test in CFA model, the basal paw withdrawal latency was adjusted to 9 to 12 s, with a cutoff of 20 s to prevent tissue damage. For thermal sensitivity test, the basal paw withdrawal latency was adjusted to 4 to 6 s, with a cutoff of 10 s to prevent tissue damage. Withdrawal latency were averaged from three consecutive tests with a 5 min interval between measurements.

The test system of a further assay is wildtype mice. Format: in vivo. The protocol: as §2, with “University. […]” for “University.”
Spontaneous pain was measured by counting the time (s) mice spent on licking, lifting, or flinching the affected hind paws over a 10-min period after i.pl. injection.

T1 sequence (Q704Y3 whole entry): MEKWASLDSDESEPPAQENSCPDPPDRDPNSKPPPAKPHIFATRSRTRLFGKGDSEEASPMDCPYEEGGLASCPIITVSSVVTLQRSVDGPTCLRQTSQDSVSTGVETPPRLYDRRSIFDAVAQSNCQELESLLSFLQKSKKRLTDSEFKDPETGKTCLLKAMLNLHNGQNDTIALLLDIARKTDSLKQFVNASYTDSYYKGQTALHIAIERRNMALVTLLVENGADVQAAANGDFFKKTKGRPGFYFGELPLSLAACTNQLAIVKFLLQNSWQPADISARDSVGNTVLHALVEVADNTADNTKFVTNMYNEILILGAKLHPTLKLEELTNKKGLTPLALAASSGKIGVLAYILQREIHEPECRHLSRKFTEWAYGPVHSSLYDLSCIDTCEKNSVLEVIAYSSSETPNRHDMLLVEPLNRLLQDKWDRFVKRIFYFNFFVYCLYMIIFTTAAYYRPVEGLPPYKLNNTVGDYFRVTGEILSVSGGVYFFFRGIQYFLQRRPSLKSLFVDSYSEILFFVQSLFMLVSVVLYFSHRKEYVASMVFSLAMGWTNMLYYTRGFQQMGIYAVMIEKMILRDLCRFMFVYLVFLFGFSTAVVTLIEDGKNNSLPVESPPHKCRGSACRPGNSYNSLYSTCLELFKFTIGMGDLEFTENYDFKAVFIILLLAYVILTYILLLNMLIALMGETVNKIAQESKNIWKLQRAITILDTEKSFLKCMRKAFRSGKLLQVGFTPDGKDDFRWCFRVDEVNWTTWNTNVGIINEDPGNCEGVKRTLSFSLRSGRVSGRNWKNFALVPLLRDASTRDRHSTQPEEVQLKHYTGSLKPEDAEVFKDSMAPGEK

For the molecule `COc1cc(CNC(=O)CCCC/C=C/C(C)C)ccc1O` [capsaicin, Capsaicin], the calcium influx result at TRPV1 [1] is on record as “cannot induce discernable calcium influx”. Also, the “IENF number, with capsaicin” value in assay [2] (individual mice, listed as Cap) is 11 and 9 and 12. The “number of Trpv1+ IENF, with capsaicin” value in assay [2] (words) is reported as “little effect on the number of Trpv1^+ IENF”. Further, the “effect on CFA-induced mechanical allodynia” value in assay [3] was “robust and prolonged mechanical allodynia”. For the same molecule, at TRPV1 [4], the “AUC of desensitization (mean)” value was 72.39 ± 6.61 and 39.25 ± 5.01; the “desensitization time constant tau (mean)” value was 47.37 ± 6.14 s and 23.87 ± 3.97 s. The “desensitization time constant, K604E” value with TRPV1 K604E is 46.184 s and 35.399 s and 63.872 s and 58.758 s and 34.354 s and 64.15 s. For the same molecule, in assay [5], the “effect on CFA-induced heat hyperalgesia” value is “slow recovery from heat hyperalgesia”. The “spontaneous pain behavior, with capsaicin” value in the assay on wildtype mice (capsaicin 200 ng alone or with 2 μg peptide, i.pl., words) is “caused a mild spontaneous pain behavior”. The “total time of spontaneous pain within 10 min, with capsaicin” value with wildtype mice (capsaicin 200 ng i.pl. alone (cap) or with 2 μg linear or folded s-RhTx, 20 μl, individual mice, listed as Cap) was 63.91 s and 41.04 s and 20.17 s and 30.43 s and 88.51 s and 98.54 s and 102.03 s and 29.73 s and 145.77 s.
